# Results: paper PMC7577319 (Bioorganic & medicinal chemistry, 2020)
# Test system: HeLa cells
# Experiment: Cytosolic entry of NF-labelled peptides by flow cytometry
# Format: cell-based
# Conditions: 5 μM, 2 h, inversion of configuration of Arg-9 or Nal-4 of peptide 4
row,Substance,fold higher cytosolic entry activity relative to peptide 4 [fold]
1,cyclo(AAFΦRpPRrFAAAQ)-miniPEG-K(NF) [compound 7],1.7
2,cyclo(AAFϕRpPRRFAAAQ)-miniPEG-K(NF) [compound 8],2.3
